In patent publication US12599672B2, “KRAS proteolysis targeting chimeras” (PAQ Therapeutics Inc., priority 2023, dated 2026):

What was measured:
Type in all cases: cell-based
[1] = biological target: T1, KRAS (Homo sapiens, UniProt P01116); assay: KRASamp MSD assay; conditions: KE39 (KRAS amplified) cells, treated with test compounds for 24 hr, MSD readout of KRAS degradation
T1 construct: endogenous in cells; host or cells: KE39 (KRAS amplified) cells
Summary of the method: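 Degradation DC50 derived by curve fitting, with KRAS levels quantified by MSD electrochemiluminescence (capture/detection antibodies, recombinant WT KRAS standard). Lysates prepared from KE39 cells (KRAS amplified) exposed to test compounds for 24 hr.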

[2] = biological target: T2, KRAS G12V (Homo sapiens, UniProt P01116, G12V); assay: KRAS G12V HiBit assay; conditions: SW620-KRAS (G12V)-HiBit-KI cells, compound treatment for 24 hours, class symbols
T2 construct: SW620-KRAS (G12V)-HiBit-KI cell (Pharmaron); host or cells: SW620-KRAS (G12V)-HiBit-KI cells (HiBiT knock-in at the endogenous KRAS locus)
Summary of the method: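 Luminescence from lytic Nano-Glo HiBiT detection with LgBiT read KRAS G12V levels after 24 h compound exposure. Dilutions were 10-point, 3-fold, from a 0.3 mM DMSO stock. Degradation activity was normalised to cells given 0.1% DMSO alone.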

[3] = biological target: T3, KRAS G12D (Homo sapiens, UniProt P01116, G12D); assay: KRAS G12D HiBit assay; conditions: AsPc-1-KRAS (G12D)-HiBit-KI cell, compound treatment for 24 hours, absolute DC50
T3 construct: AsPc-1-KRAS (G12D)-HiBit-KI cell (Pharmaron); host or cells: AsPc-1-KRAS (G12D)-HiBit-KI cells (HiBiT knock-in at the endogenous KRAS locus)
Summary of the method: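 HiBiT luminescence, detected by adding lytic buffer, substrate and LgBiT protein, served as the KRAS G12D read-out. Compounds, serially diluted 3-fold over 10 points from 0.3 mM DMSO stock, were on cells for 24 h; percent inhibition normalized to cells given 0.1% DMSO only.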

[4] = numeric bounds given in place of class symbols

T1 sequence (P01116 1-188 isoform P01116-2): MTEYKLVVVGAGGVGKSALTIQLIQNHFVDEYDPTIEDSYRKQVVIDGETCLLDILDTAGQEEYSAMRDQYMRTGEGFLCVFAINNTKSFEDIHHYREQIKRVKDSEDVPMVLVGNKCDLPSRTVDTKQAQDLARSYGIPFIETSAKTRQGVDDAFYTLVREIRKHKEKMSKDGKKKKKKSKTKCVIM
T2 sequence (P01116 1-188 isoform P01116-2 G12V): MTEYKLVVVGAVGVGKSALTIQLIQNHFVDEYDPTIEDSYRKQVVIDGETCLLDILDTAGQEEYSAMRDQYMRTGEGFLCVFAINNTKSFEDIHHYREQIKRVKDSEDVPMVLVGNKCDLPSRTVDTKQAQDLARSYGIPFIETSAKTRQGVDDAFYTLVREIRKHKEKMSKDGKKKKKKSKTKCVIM
T3 sequence (P01116 1-188 isoform P01116-2 G12D): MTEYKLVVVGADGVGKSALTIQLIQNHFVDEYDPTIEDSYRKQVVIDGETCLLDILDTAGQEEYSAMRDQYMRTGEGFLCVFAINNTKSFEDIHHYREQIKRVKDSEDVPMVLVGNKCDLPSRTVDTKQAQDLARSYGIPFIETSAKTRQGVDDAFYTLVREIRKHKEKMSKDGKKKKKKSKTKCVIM

| SMILES | DC50 [1] [nM] | DC50 [2] [nM] | DC50 [3, 4] [nM] | DC50 ([3]; class symbols) [nM] |
| --- | --- | --- | --- | --- |
| CCc1c(F)ccc2cc(O)cc(-c3ncc4c(N5CCC[C@@](C)(O)C5)nc(OC[C@@]56CCCN5[C@@H](COC(=O)N5CCC(COc7ccc8c(c7)n(C)c(=O)n8C7CCC(=O)NC7=O)CC5)CC6)nc4c3F)c12 (stereo partly drawn) [Compound 314, ((3R,7aS)-7a-(((7-(8-ethyl-7-fluoro-3-hydroxynaphthalen-1-yl)-8-fluoro-4-((R)-3-hydroxy-3-methylpiperidin-1-yl)pyrido[4,3-d]pyrimidin-2-yl)oxy)methyl)hexahydro-1H-pyrrolizin-3-yl)methyl 4-(((1-(2,6-dioxopiperidin-3-yl)-3-methyl-2-oxo-2,3-dihydro-1H-benzo[d]imidazol-5-yl)oxy)methyl)piperidine-1-carboxylate] | ≥ 10 | > 100 | > 100 |  |
| CCc1c(F)ccc2cc(O)cc(-c3ncc4c(N5CCC[C@@](C)(O)C5)nc(OC[C@@]56CCCN5[C@@H](COC(=O)N5CCC(CCOc7ccc8c(c7)n(C)c(=O)n8C7CCC(=O)NC7=O)CC5)CC6)nc4c3F)c12 (stereo partly drawn) [Compound 315, ((3R,7aS)-7a-(((7-(8-ethyl-7-fluoro-3-hydroxynaphthalen-1-yl)-8-fluoro-4-((R)-3-hydroxy-3-methylpiperidin-1-yl)pyrido[4,3-d]pyrimidin-2-yl)oxy)methyl)hexahydro-1H-pyrrolizin-3-yl)methyl 4-(2-((1-(2,6-dioxopiperidin-3-yl)-3-methyl-2-oxo-2,3-dihydro-1H-benzo[d]imidazol-5-yl)oxy)ethyl)piperidine-1-carboxylate] | ≥ 10 | > 100 | > 100 |  |
| CCc1c(F)ccc2cc(O)cc(-c3ncc4c(N5CCC[C@@](C)(O)C5)nc(OC[C@@]56CCCN5[C@@H](COC(=O)N5CCC(CCCOc7ccc8c(c7)n(C)c(=O)n8C7CCC(=O)NC7=O)CC5)CC6)nc4c3F)c12 (stereo partly drawn) [Compound 316, ((3R,7aS)-7a-(((7-(8-ethyl-7-fluoro-3-hydroxynaphthalen-1-yl)-8-fluoro-4-((R)-3-hydroxy-3-methylpiperidin-1-yl)pyrido[4,3-d]pyrimidin-2-yl)oxy)methyl)hexahydro-1H-pyrrolizin-3-yl)methyl 4-(3-((1-(2,6-dioxopiperidin-3-yl)-3-methyl-2-oxo-2,3-dihydro-1H-benzo[d]imidazol-5-yl)oxy)propyl)piperidine-1-carboxylate] | ≥ 10 | > 100 | > 100 |  |
| CCc1c(F)ccc2cc(O)cc(-c3ncc4c(N5CCC[C@@](C)(O)C5)nc(OC[C@@]56CCCN5[C@@H](COC(=O)N5CCC(CCCCOc7ccc8c(c7)n(C)c(=O)n8C7CCC(=O)NC7=O)CC5)CC6)nc4c3F)c12 (stereo partly drawn) [Compound 317, ((3R,7aS)-7a-(((7-(8-ethyl-7-fluoro-3-hydroxynaphthalen-1-yl)-8-fluoro-4-((R)-3-hydroxy-3-methylpiperidin-1-yl)pyrido[4,3-d]pyrimidin-2-yl)oxy)methyl)hexahydro-1H-pyrrolizin-3-yl)methyl 4-(4-((1-(2,6-dioxopiperidin-3-yl)-3-methyl-2-oxo-2,3-dihydro-1H-benzo[d]imidazol-5-yl)oxy)butyl)piperidine-1-carboxylate] | ≥ 10 | > 100 |  | < 100 |
| C#Cc1c(F)ccc2cc(O)cc(-c3ncc4c(N5CCC[C@@](C)(O)C5)nc(OC[C@@]56CCCN5[C@H](COC(=O)N5CCC7(CC5)CCN7C5CCN(c7ccc8c(c7)n(C)c(=O)n8C7CCC(=O)NC7=O)CC5)CC6)nc4c3F)c12 (stereo partly drawn) [Compound 320, ((3S,7aS)-7a-(((7-(8-ethynyl-7-fluoro-3-hydroxynaphthalen-1-yl)-8-fluoro-4-((R)-3-hydroxy-3-methylpiperidin-1-yl)pyrido[4,3-d]pyrimidin-2-yl)oxy)methyl)hexahydro-1H-pyrrolizin-3-yl)methyl 1-(1-(1-(2,6-dioxopiperidin-3-yl)-3-methyl-2-oxo-2,3-dihydro-1H-benzo[d]imidazol-5-yl)piperidin-4-yl)-1,7-diazaspiro[3.5]nonane-7-carboxylate] | ≥ 10 | > 100 | > 100 |  |
| C#Cc1c(F)ccc2cc(O)cc(-c3ncc4c(N5CCC[C@@](C)(O)C5)nc(OC[C@@]56CCCN5[C@H](COC(=O)N5CCC7(CCC(CN8CCC(c9ccc%10c(c9)n(C)c(=O)n%10C9CCC(=O)NC9=O)CC8)CC7)CC5)CC6)nc4c3F)c12 (stereo partly drawn) [Compound 321, ((3S,7aS)-7a-(((7-(8-ethynyl-7-fluoro-3-hydroxynaphthalen-1-yl)-8-fluoro-4-((R)-3-hydroxy-3-methylpiperidin-1-yl)pyrido[4,3-d]pyrimidin-2-yl)oxy)methyl)hexahydro-1H-pyrrolizin-3-yl)methyl 9-((4-(1-(2,6-dioxopiperidin-3-yl)-3-methyl-2-oxo-2,3-dihydro-1H-benzo[d]imidazol-5-yl)piperidin-1-yl)methyl)-3-azaspiro[5.5]undecane-3-carboxylate] | 1 to 10 | < 10 |  | < 100 |
| C#Cc1c(F)ccc2cc(O)cc(-c3ncc4c(N5CCC[C@@](C)(O)C5)nc(OC[C@@]56CCCN5[C@H](COC(=O)N5CC(N7CCC(N8CCC(c9ccc%10c(c9)n(C)c(=O)n%10C9CCC(=O)NC9=O)CC8)CC7)C5)CC6)nc4c3F)c12 (stereo partly drawn) [Compound 322, ((3S,7aS)-7a-(((7-(8-ethynyl-7-fluoro-3-hydroxynaphthalen-1-yl)-8-fluoro-4-((R)-3-hydroxy-3-methylpiperidin-1-yl)pyrido[4,3-d]pyrimidin-2-yl)oxy)methyl)hexahydro-1H-pyrrolizin-3-yl)methyl 3-(4-(1-(2,6-dioxopiperidin-3-yl)-3-methyl-2-oxo-2,3-dihydro-1H-benzo[d]imidazol-5-yl)-[1,4′-bipiperidin]-1′-yl)azetidine-1-carboxylate] | ≥ 10 | > 100 | > 100 |  |
| C#Cc1c(F)ccc2cc(O)cc(-c3ncc4c(N5CCC[C@@](C)(O)C5)nc(OC[C@@]56CCCN5[C@H](COC(=O)N5CCC7(CC5)CC(CN5CCC(c8ccc9c(c8)n(C)c(=O)n9C8CCC(=O)NC8=O)CC5)C7)CC6)nc4c3F)c12 (stereo partly drawn) [Compound 323, ((3S,7aS)-7a-(((7-(8-ethynyl-7-fluoro-3-hydroxynaphthalen-1-yl)-8-fluoro-4-((R)-3-hydroxy-3-methylpiperidin-1-yl)pyrido[4,3-d]pyrimidin-2-yl)oxy)methyl)hexahydro-1H-pyrrolizin-3-yl)methyl 2-((4-(1-(2,6-dioxopiperidin-3-yl)-3-methyl-2-oxo-2,3-dihydro-1H-benzo[d]imidazol-5-yl)piperidin-1-yl)methyl)-7-azaspiro[3.5]nonane-7-carboxylate] | 1 to 10 | < 10 |  | < 100 |
| C#Cc1c(F)ccc2cc(O)cc(-c3ncc4c(N5CCC[C@@](C)(O)C5)nc(OC[C@@]56CCCN5[C@H](COC(=O)NC5CCN(C7CCN(c8ccc9c(c8)n(C)c(=O)n9C8CCC(=O)NC8=O)CC7)CC5)CC6)nc4c3F)c12 (stereo partly drawn) [Compound 324, ((3S,7aS)-7a-(((7-(8-ethynyl-7-fluoro-3-hydroxynaphthalen-1-yl)-8-fluoro-4-((R)-3-hydroxy-3-methylpiperidin-1-yl)pyrido[4,3-d]pyrimidin-2-yl)oxy)methyl)hexahydro-1H-pyrrolizin-3-yl)methyl (1′-(1-(2,6-dioxopiperidin-3-yl)-3-methyl-2-oxo-2,3-dihydro-1H-benzo[d]imidazol-5-yl)-[1,4′-bipiperidin]-4-yl)carbamate] | ≥ 10 | > 100 | > 100 |  |
| C#Cc1c(F)ccc2cc(O)cc(-c3ncc4c(N5CCC[C@@](C)(O)C5)nc(OC[C@@]56CCCN5[C@H](COC(=O)NC5CN(C7CCN(c8ccc9c(c8)n(C)c(=O)n9C8CCC(=O)NC8=O)CC7)C5)CC6)nc4c3F)c12 (stereo partly drawn) [Compound 325, ((3S,7aS)-7a-(((7-(8-ethynyl-7-fluoro-3-hydroxynaphthalen-1-yl)-8-fluoro-4-((R)-3-hydroxy-3-methylpiperidin-1-yl)pyrido[4,3-d]pyrimidin-2-yl)oxy)methyl)hexahydro-1H-pyrrolizin-3-yl)methyl (1-(1-(1-(2,6-dioxopiperidin-3-yl)-3-methyl-2-oxo-2,3-dihydro-1H-benzo[d]imidazol-5-yl)piperidin-4-yl)azetidin-3-yl)carbamate] | ≥ 10 | > 100 | > 100 |  |
| C#Cc1c(F)ccc2cc(O)cc(-c3ncc4c(N5CCC[C@@](C)(O)C5)nc(OC[C@@]56CCCN5[C@H](COC(=O)N5CCC57CCN(C5CCN(c8ccc9c(c8)n(C)c(=O)n9C8CCC(=O)NC8=O)CC5)CC7)CC6)nc4c3F)c12 (stereo partly drawn) [Compound 326, ((3S,7aS)-7a-(((7-(8-ethynyl-7-fluoro-3-hydroxynaphthalen-1-yl)-8-fluoro-4-((R)-3-hydroxy-3-methylpiperidin-1-yl)pyrido[4,3-d]pyrimidin-2-yl)oxy)methyl)hexahydro-1H-pyrrolizin-3-yl)methyl 7-(1-(1-(2,6-dioxopiperidin-3-yl)-3-methyl-2-oxo-2,3-dihydro-1H-benzo[d]imidazol-5-yl)piperidin-4-yl)-1,7-diazaspiro[3.5]nonane-1-carboxylate] | ≥ 10 | > 100 | > 100 |  |
